Measurements: PubChem BioAssay AID1259407 (Chemical Carcinogenesis Research Information System (CCRIS), 2018)
Activity calls are given as the source filed them. How the calls were made is not given here.

Tested on: CCRIS mutagenicity, Ames/micronucleus/aberration tests
Test: CCRIS mutagenicity studies
[1] = Test System: AMES SALMONELLA TYPHIMURIUM, Strain/Indicator: TA92, Metabolic Activation: NONE, Method: STANDARD PLATE
[2] = Test System: AMES SALMONELLA TYPHIMURIUM, Strain/Indicator: TA100, Metabolic Activation: NONE, Method: STANDARD PLATE

Compound: CN(C)/N=N/c1nc[nH]c1C(N)=O
- mutagenic call (Test System: AMES SALMONELLA TYPHIMURIUM, Strain/Indicator: G46, Metabolic Activation: NONE, Method: STANDARD PLATE): inactive; negative
- mutagenic call (Test System: AMES SALMONELLA TYPHIMURIUM, Strain/Indicator: G46, Metabolic Activation: RAT, LIVER, S-9, PHENOBARBITAL, Method: STANDARD PLATE): active; positive
- mutagenic call [1]: active; positive
- mutagenic call (Test System: AMES SALMONELLA TYPHIMURIUM, Strain/Indicator: TA92, Metabolic Activation: RAT, LIVER, S-9, PHENOBARBITAL, Method: STANDARD PLATE): active; positive
- mutagenic call (Test System: AMES SALMONELLA TYPHIMURIUM, Strain/Indicator: TA97, Metabolic Activation: HAMSTER, LIVER, S-9, AROCLOR 1254 (10%), Method: PREINCUBATION): active; positive
- mutagenic call (Test System: AMES SALMONELLA TYPHIMURIUM, Strain/Indicator: TA97, Metabolic Activation: NONE, Method: PREINCUBATION): active; positive
- mutagenic call (Test System: AMES SALMONELLA TYPHIMURIUM, Strain/Indicator: TA97, Metabolic Activation: RAT, LIVER, S-9, AROCLOR 1254 (10%), Method: PREINCUBATION): active; positive
- mutagenic call (Test System: AMES SALMONELLA TYPHIMURIUM, Strain/Indicator: TA98, Metabolic Activation: HAMSTER, LIVER, S-9, AROCLOR 1254 (10%), Method: PREINCUBATION): active; positive
- mutagenic call (Test System: AMES SALMONELLA TYPHIMURIUM, Strain/Indicator: TA98, Metabolic Activation: RAT, LIVER, S-9, AROCLOR 1254 (10%), Method: PREINCUBATION): active; positive
- mutagenic call (Test System: AMES SALMONELLA TYPHIMURIUM, Strain/Indicator: TA98, Metabolic Activation: S-9, Method: PREINCUBATION): inactive; negative
- mutagenic call (Test System: AMES SALMONELLA TYPHIMURIUM, Strain/Indicator: TA100, Metabolic Activation: HAMSTER, LIVER, S-9, AROCLOR 1254 (10%), Method: PREINCUBATION): active; positive
- mutagenic call [2]: active; positive
- mutagenic call (Test System: AMES SALMONELLA TYPHIMURIUM, Strain/Indicator: TA100, Metabolic Activation: RAT, LIVER, S-9, AROCLOR 1254 (10%), Method: PREINCUBATION): active; positive
- mutagenic call (Test System: AMES SALMONELLA TYPHIMURIUM, Strain/Indicator: TA100, Metabolic Activation: RAT, LIVER, S-9, PHENOBARBITAL, Method: STANDARD PLATE): active; positive
- mutagenic call (Test System: AMES SALMONELLA TYPHIMURIUM, Strain/Indicator: TA100, Metabolic Activation: S-9, Method: PREINCUBATION): inactive; negative
- mutagenic call (Test System: AMES SALMONELLA TYPHIMURIUM, Strain/Indicator: TA1535, Metabolic Activation: HAMSTER, LIVER, S-9, AROCLOR 1254 (10%), Method: PREINCUBATION): active; positive
- mutagenic call (Test System: AMES SALMONELLA TYPHIMURIUM, Strain/Indicator: TA1535, Metabolic Activation: NONE, Method: PREINCUBATION): inactive; negative
- mutagenic call (Test System: AMES SALMONELLA TYPHIMURIUM, Strain/Indicator: TA1535, Metabolic Activation: RAT, LIVER, S-9, AROCLOR 1254 (10%), Method: PREINCUBATION): active; positive
- mutagenic call (Test System: E. COLI, Strain/Indicator: TM6, Metabolic Activation: NONE, Method: STANDARD PLATE): active; positive
- mutagenic call (Test System: E. COLI, Strain/Indicator: TM6, Metabolic Activation: RAT, LIVER, S-9, PHENOBARBITAL, Method: STANDARD PLATE): active; positive
- mutagenic call (Test System: E. COLI, Strain/Indicator: TM9, Metabolic Activation: NONE, Method: STANDARD PLATE): active; positive
- mutagenic call (Test System: E. COLI, Strain/Indicator: TM9, Metabolic Activation: RAT, LIVER, S-9, PHENOBARBITAL, Method: STANDARD PLATE): active; positive
- mutagenic call (Test System: E. COLI, Strain/Indicator: WP2, Metabolic Activation: NONE, Method: STANDARD PLATE): active; positive
- mutagenic call (Test System: E. COLI, Strain/Indicator: WP2, Metabolic Activation: RAT, LIVER, S-9, PHENOBARBITAL, Method: STANDARD PLATE): active; positive
- mutagenic call (Test System: E. COLI, Strain/Indicator: WP2 UVRA, Metabolic Activation: NONE, Method: STANDARD PLATE): active; positive
- mutagenic call (Test System: E. COLI, Strain/Indicator: WP2 UVRA, Metabolic Activation: RAT, LIVER, S-9, PHENOBARBITAL, Method: STANDARD PLATE): active; positive

Compound: Cc1c([N+](=O)[O-])c(C)c([N+](=O)[O-])c(C(C)(C)C)c1[N+](=O)[O-]
- mutagenic call (Test System: AMES SALMONELLA TYPHIMURIUM, Strain/Indicator: TA98, Metabolic Activation: NONE, Method: PREINCUBATION): inactive; negative
- mutagenic call (Test System: AMES SALMONELLA TYPHIMURIUM, Strain/Indicator: TA98, Metabolic Activation: NONE, Method: STANDARD PLATE): inactive; negative
- mutagenic call (Test System: AMES SALMONELLA TYPHIMURIUM, Strain/Indicator: TA98, Metabolic Activation: RAT, LIVER, S-9, AROCLOR 1254, Method: PREINCUBATION): inactive; negative
- mutagenic call (Test System: AMES SALMONELLA TYPHIMURIUM, Strain/Indicator: TA98, Metabolic Activation: RAT, LIVER, S-9, AROCLOR 1254, Method: STANDARD PLATE): inactive; negative
- mutagenic call (Test System: AMES SALMONELLA TYPHIMURIUM, Strain/Indicator: TA100, Metabolic Activation: NONE, Method: PREINCUBATION): inactive; negative
- mutagenic call [2]: inactive; negative
- mutagenic call (Test System: AMES SALMONELLA TYPHIMURIUM, Strain/Indicator: TA100, Metabolic Activation: RAT, LIVER, S-9, AROCLOR 1254, Method: PREINCUBATION): inactive; negative
- mutagenic call (Test System: AMES SALMONELLA TYPHIMURIUM, Strain/Indicator: TA100, Metabolic Activation: RAT, LIVER, S-9, AROCLOR 1254, Method: STANDARD PLATE): inactive; negative
- mutagenic call (Test System: MOUSE LYMPHOMA, Strain/Indicator: L5178Y (TK+/TK-), Metabolic Activation: NONE, Method: SUSPENSION/PLATE): inactive; negative
- mutagenic call (Test System: MOUSE LYMPHOMA, Strain/Indicator: L5178Y (TK+/TK-), Metabolic Activation: RAT, LIVER, S-9, AROCLOR 1242 AND 1254 (2:1), Method: SUSPENSION/PLATE): inactive; negative
- mutagenic call (Test System: UDS RAT HEPATOCYTES, Strain/Indicator: THY INCORP, Metabolic Activation: NONE): inactive; negative
- mutagenic call (Test System: UDS RAT HEPATOCYTES, Strain/Indicator: THY INCORP, Metabolic Activation: NONE, Method: IN VIVO-IN VITRO): inactive; negative

Compound: O=C(O)c1c(Cl)c(Cl)c(Cl)c(Cl)c1-c1c2cc(I)c(=O)c(I)c-2oc2c(I)c(O)c(I)cc12
- mutagenic call (End Point: IN VIVO MICRONUCLEUS, Test System: BONE MARROW POLYCHROMATIC ERYTHROCYTES, Species: MOUSE, Strain/Sex: DDY/MALE, Route: IP): inactive; negative

Compound: CCn1cc(C(=O)O)c(=O)c2cc(F)c(N3CCNCC3)nc21
- mutagenic call (Test System: AMES SALMONELLA TYPHIMURIUM, Strain/Indicator: HISG428, Metabolic Activation: NONE, Method: STANDARD PLATE): inactive; negative
- mutagenic call [1]: active; positive
- mutagenic call (Test System: AMES SALMONELLA TYPHIMURIUM, Strain/Indicator: TA102, Metabolic Activation: NONE, Method: STANDARD PLATE): active; positive
- mutagenic call (Test System: AMES SALMONELLA TYPHIMURIUM, Strain/Indicator: TA103, Metabolic Activation: NONE, Method: STANDARD PLATE): active; positive
- mutagenic call (Test System: AMES SALMONELLA TYPHIMURIUM, Strain/Indicator: TA104, Metabolic Activation: NONE, Method: STANDARD PLATE): inactive; negative
- mutagenic call (Test System: AMES SALMONELLA TYPHIMURIUM, Strain/Indicator: TA2638, Metabolic Activation: NONE, Method: STANDARD PLATE): active; positive
- mutagenic call (Test System: AMES SALMONELLA TYPHIMURIUM, Strain/Indicator: TA2661, Metabolic Activation: NONE, Method: STANDARD PLATE): inactive; negative
- mutagenic call (Test System: AMES SALMONELLA TYPHIMURIUM, Strain/Indicator: TA2662, Metabolic Activation: NONE, Method: STANDARD PLATE): active; positive
- mutagenic call (Test System: AMES SALMONELLA TYPHIMURIUM, Strain/Indicator: TA2678, Metabolic Activation: NONE, Method: STANDARD PLATE): inactive; negative

Compound: C/C=C1/C[C@@H](C)[C@](O)(CO)C(=O)OCC2=CC[N+]3([O-])CC[C@@H](OC1=O)[C@@H]23 (some centres undefined)
- mutagenic call (Test System: AMES SALMONELLA TYPHIMURIUM, Strain/Indicator: TA100, Metabolic Activation: RAT, LIVER, S-9, SODIUM PHENOBARBITAL AND BETA-NAPHTHOFLAVONE, Method: PREINCUBATION): inactive; negative
